# Data: patent US12240862B2, “Inhibitors of peptidylarginine deiminases” (Gilead Sciences, Inc., priority 2020, dated 2025)
# Target: T1, human PAD4 (Homo sapiens, UniProt Q9UM07)
# T1 construct: human PAD4 (NM_012387), A2P663, was PCR amplified; His-SUMO (N, cleaved yes); made in house; host or cells: E. coli BL21(DE3)
# Test: In vitro PAD4 BAEE biochemical assay
# Settings: human PAD4, BAEE substrate; 5 nM PAD4, 2 mM calcium chloride, 3 mM BAEE; geometric mean of multiple experiments
# In short: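 Ammonia release from BAEE deimination monitored by o-phthalaldehyde amine coupling (1 h, 25 °C) after EDTA stop. Final conditions: 5 nM tag-free recombinant human PAD4 (E. coli), 2 mM CaCl2, 3 mM BAEE, pH 7.6 MOPS with DTT; 30 min compound preincubation, then 2 h reaction at 25 °C.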
# T1 sequence (Q9UM07 2-663): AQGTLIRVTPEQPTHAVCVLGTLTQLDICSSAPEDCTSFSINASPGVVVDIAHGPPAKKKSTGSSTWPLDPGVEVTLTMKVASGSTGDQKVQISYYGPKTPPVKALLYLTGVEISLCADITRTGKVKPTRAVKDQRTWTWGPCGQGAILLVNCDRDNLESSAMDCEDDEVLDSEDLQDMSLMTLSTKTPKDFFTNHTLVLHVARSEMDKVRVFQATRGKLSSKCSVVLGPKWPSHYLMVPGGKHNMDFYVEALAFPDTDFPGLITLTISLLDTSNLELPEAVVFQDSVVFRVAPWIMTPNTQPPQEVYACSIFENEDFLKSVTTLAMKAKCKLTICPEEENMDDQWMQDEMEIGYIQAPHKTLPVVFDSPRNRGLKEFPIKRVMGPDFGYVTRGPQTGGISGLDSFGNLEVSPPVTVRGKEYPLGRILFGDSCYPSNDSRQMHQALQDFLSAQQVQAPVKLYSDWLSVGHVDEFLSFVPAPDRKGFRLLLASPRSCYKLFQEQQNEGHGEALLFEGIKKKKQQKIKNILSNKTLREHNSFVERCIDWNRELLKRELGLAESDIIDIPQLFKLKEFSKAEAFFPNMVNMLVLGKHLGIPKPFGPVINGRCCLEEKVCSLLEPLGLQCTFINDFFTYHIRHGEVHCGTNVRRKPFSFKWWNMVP
row,IC50 [nM],Structure (SMILES)
1,361,"COc1cc(C(=O)N2[C@H]3CC[C@@H]2[C@H](N)C3)cc2nc(-c3cc4ccc(N5c6ccccc6CS5(=O)=O)nc4n3CC3CC3)c(C)n12 [Example 467, [(1~{R},2~{R},4~{S})-2-amino-7-azabicyclo [2.2.1]heptan-7-yl]-[2-[1-(cyclopropylmethyl)-6-(2,2-dioxo-3~{H}-2,1-benzothiazol-1-yl)pyrrolo [2,3-b]pyridin-2-yl]-5-methoxy-3-methylimidazo [1,2-a]pyridin-7-yl] methanone]"
2,238,"COc1cc(C(=O)N2[C@H]3CC[C@@H]2[C@H](N)C3)cc2nc(-c3cc4ccc(N5c6ccccc6CCS5(=O)=O)nc4n3CC3CC3)c(C)n12 [Example 468, [(1~{R},2~{R},4~{S})-2-amino-7-azabicyclo [2.2.1]heptan-7-yl]-[2-[1-(cyclopropylmethyl)-6-(2,2-dioxo-3,4-dihydro-2$l^6,1-benzothiazin-1-yl)pyrrolo[2,3-b]pyridin-2-yl]-5-methoxy-3-methylimidazo[1,2-a]pyridin-7-yl]methanone]"
3,781,"COc1cc(C(=O)N2[C@H]3CC[C@@H]2[C@H](N)C3)cc2nc(-c3cc4ccc(N5CCCC(c6ccccc6)S5(=O)=O)nc4n3CC3CC3)c(C)n12 (stereo partly shown) [Example 469, [(1~{R},2~{R},4~{S})-2-amino-7-azabicyclo [2.2.1]heptan-7-yl]-[2-[1-(cyclopropylmethyl)-6-(1,1-dioxo-6-phenylthiazinan-2-yl)pyrrolo[2,3-b]pyridin-2-yl]-5-methoxy-3-methylimidazo[1,2-a]pyridin-7-yl]methanone]"
4,165,"CCN(C(=O)OC)c1ccc2cc(-c3nc4cc(C(=O)N5[C@H]6CC[C@@H]5[C@H](N)C6)cc(OC)n4c3C)n(CC3CC3)c2n1 [Example 470, methyl~{N}-[2-[7-[(1~{R},2~{R},4~{S})-2-amino-7-azabicyclo[2.2.1]heptane-7-carbonyl]-5-methoxy-3-methylimidazo [1,2-a]pyridin-2-yl]-1-(cyclopropylmethyl)pyrrolo [2,3-b]pyridin-6-yl]-~{N}-ethylcarbamate]"
5,1360,"[2H]C([2H])([2H])N(c1ccc2cc(-c3nc4cc(C(=O)N5C[C@H]6CC[C@@H]5[C@@H]6N)cc(OC)n4c3C)n(CC3CC3)c2n1)S(=O)(=O)Cc1ccccc1 [Example 471, N-[2-[7-[(1R,4R,7R)-7-amino-2-azabicyclo[2.2.1]heptane-2-carbonyl]-5-methoxy-3-methyl-imidazo [1,2-a]pyridin-2-yl]-1-(cyclopropylmethyl)pyrrolo[2,3-b]pyridin-6-yl]-1-phenyl-N-(trideuteriomethyl) methanesulfonamide]"
6,117,"COc1cc(C(=O)N2[C@H]3CC[C@@H]2[C@H](N)C3)cc2nc(-c3cc4ccc(N5[C@@H]6CC[C@@H](C6)CS5(=O)=O)nc4n3CC3CC3)c(C)n12 [Example 473, [(1~{R},2~{R},4~{S})-2-amino-7-azabicyclo [2.2.1]heptan-7-yl]-[2-[1-(cyclopropylmethyl)-6-[(1~ {R},5~{S})-3,3-dioxo-3$l^6-thia-2-azabicyclo[3.2.1]octan-2-yl]pyrrolo [2,3-b]pyridin-2-yl]-5-methoxy-3-methylimidazo [1,2-a]pyridin-7-yl] methanone]"
7,44.2,"COc1cc(C(=O)N2[C@H]3CC[C@@H]2[C@H](N)C3)cc2nc(-c3cc4ccc(N5CCCCS5(=O)=O)nc4n3CC3CC3)c(C)n12 [Example 474, [(1~{R},2~{R},4~{S})-2-amino-7-azabicyclo [2.2.1]heptan-7-yl]-[2-[1-(cyclopropylmethyl)-6-(1,1-dioxothiazinan-2-yl)pyrrolo [2,3-b]pyridin-2-yl]-5-methoxy-3-methylimidazo [1,2-a]pyridin-7-yl]methanone]"
8,75.1,"CCN(c1ccc2cc(-c3nc4cc(C(=O)N5[C@H]6CC[C@@H]5[C@H](N)C6)cc(OC)n4c3C)n(CC3CC3)c2n1)S(C)(=O)=O [Example 475, ~{N}-[2-[7-[(1~{R},2~{R}, 4~{S})-2-amino-7-azabicyclo[2.2.1]heptane-7-carbonyl]-5-methoxy-3-methylimidazo[1,2-a]pyridin-2-yl]-1-(cyclopropylmethyl)pyrrolo [2,3-b]pyridin-6-yl]-~{N}-ethylmethanesulfonamide]"

# The remaining lines, values behind:
row,Structure (SMILES),IC50 [nM]
1,"COc1cc(C(=O)N2[C@H]3CC[C@@H]2[C@H](N)C3)cc2nc(-c3cc4ccc(N5C(=O)CCCC5C)nc4n3CC3CC3)c(C)n12 (stereo partly shown) [Example 456, 1-[2-[7-[(1~{R},2~{R}, 4~{S})-2-amino-7-azabicyclo[2.2.1]heptane-7-carbonyl]-5-methoxy-3-methylimidazo[1,2-a]pyridin-2-yl]-1-(cyclopropylmethyl)pyrrolo[2,3-b]pyridin-6-yl]-6-methylpiperidin-2-one]",250
2,"COc1cc(C(=O)N2[C@H]3CC[C@@H]2[C@H](N)C3)cc2nc(-c3cc4ccc(N5CCCC6(CC6)S5(=O)=O)nc4n3CC3CC3)c(C)n12 [Example 457, [(1~{R},2~{R},4~{S})-2-amino-7-azabicyclo [2.2.1]heptan-7-yl]-[2-[1-(cyclopropylmethyl)-6-(4,4-dioxo-4$l^6-thia-5-azaspiro[2.5]octan-5-yl)pyrrolo[2,3-b]pyridin-2-yl]-5-methoxy-3-methylimidazo[1,2-a]pyridin-7-yl]methanone]",52.2
3,"COc1cc(C(=O)N2[C@H]3CC[C@@H]2[C@H](N)C3)cc2nc(-c3cc4ccc(N5CCOCS5(=O)=O)nc4n3CC3CC3)c(C)n12 [Example 458, [(1~{R},2~{R},4~{S})-2-amino-7-azabicyclo [2.2.1]heptan-7-yl]-[2-[1-(cyclopropylmethyl)-6-(3,3-dioxo-1,3,4-oxathiazinan-4-yl)pyrrolo [2,3-b]pyridin-2-yl]-5-methoxy-3-methylimidazo[1,2-a]pyridin-7-yl]methanone]",52.3
4,"COc1cc(C(=O)N2[C@H]3CC[C@@H]2[C@H](N)C3)cc2nc(-c3cc4ccc(N5CCCCCS5(=O)=O)nc4n3CC3CC3)c(C)n12 [Example 459, [(1~{R},2~{R},4~{S})-2-amino-7-azabicyclo [2.2.1]heptan-7-yl]-[2-[1-(cyclopropylmethyl)-6-(1,1-dioxothiazepan-2-yl)pyrrolo[2,3-b]pyridin-2-yl]-5-methoxy-3-methylimidazo[1,2-a]pyridin-7-yl]methanone]",28
5,"COc1cc(C(=O)N2[C@H]3CC[C@@H]2[C@H](N)C3)cc2nc(-c3cc4ccc(N5CCOc6ccccc6S5(=O)=O)nc4n3CC3CC3)c(C)n12 [Example 460, [(1~{R},2~{R},4~{S})-2-amino-7-azabicyclo [2.2.1]heptan-7-yl]-[2-[1-(cyclopropylmethyl)-6-(1,1-dioxo-3,4-dihydro-5,1$l^6,2-benzoxathiazepin-2-yl)pyrrolo[2,3-b]pyridin-2-yl]-5-methoxy-3-methylimidazo[1,2-a]pyridin-7-yl]methanone]",99.9
6,"COc1cc(C(=O)N2[C@H]3CC[C@@H]2[C@H](N)C3)cc2nc(-c3cc4ccc(N5Cc6ccccc6CS5(=O)=O)nc4n3CC3CC3)c(C)n12 [Example 461, [(1~{R},2~{R},4~{S})-2-amino-7-azabicyclo [2.2.1]heptan-7-yl]-[2-[1-(cyclopropylmethyl)-6-(2,2-dioxo-1,4-dihydro-2$l^6,3-benzothiazin-3-yl)pyrrolo[2,3-b]pyridin-2-yl]-5-methoxy-3-methylimidazo[1,2-a]pyridin-7-yl]methanone]",294
7,"COc1cc(C(=O)N2[C@H]3CC[C@@H]2[C@H](N)C3)cc2nc(-c3cc4ccc(N5[C@@H](C)CCCS5(=O)=O)nc4n3CC3CC3)c(C)n12 [Example 462, ((1R,2R,4S)-2-amino-7-azabicyclo[2.2.1]heptan-7-yl)(2-(1-(cyclopropylmethyl)-6-((S)-3-methyl-1,1-dioxido-1,2-thiazinan-2-yl)-1H-pyrrolo[2,3-b]pyridin-2-yl)-5-methoxy-3-methylimidazo[1,2-a]pyridin-7-yl)methanone]",39.7
8,"COc1cc(C(=O)N2[C@H]3CC[C@@H]2[C@H](N)C3)cc2nc(-c3cc4ccc(N5[C@H](C)CCCS5(=O)=O)nc4n3CC3CC3)c(C)n12 [Example 463, [(1~{R},2~{R},4~{S})-2-amino-7-azabicyclo [2.2.1]heptan-7-yl]-[2-[1-(cyclopropylmethyl)-6-[(3~{R})-3-methyl-1,1-dioxothiazinan-2-yl]pyrrolo[2,3-b]pyridin-2-yl]-5-methoxy-3-methylimidazo [1,2-a]pyridin-7-yl] methanone]",133
9,"COc1cc(C(=O)N2[C@H]3CC[C@@H]2[C@H](N)C3)cc2nc(-c3cc4ccc(N5CCCOC5=O)nc4n3CC3CC3)c(C)n12 [Example 464, 3-[2-[7-[(1~{R},2~{R}, 4~{S})-2-amino-7-azabicyclo[2.2.1]heptane-7-carbonyl]-5-methoxy-3-methylimidazo[1,2-a]pyridin-2-yl]-1-(cyclopropylmethyl)pyrrolo [2,3-b]pyridin-6-yl]-1,3-oxazinan-2-one]",100
10,"COC(=O)N(C)c1ccc2cc(-c3nc4cc(C(=O)N5[C@H]6CC[C@@H]5[C@H](N)C6)cc(OC)n4c3C)n(CC3CC3)c2n1 [Example 465, methyl~{N}-[2-[7-[(1~{R},2~{R},4~{S})-2-amino-7-azabicyclo[2.2.1]heptane-7-carbonyl]-5-methoxy-3-methylimidazo [1,2-a]pyridin-2-yl]-1-(cyclopropylmethyl)pyrrolo [2,3-b]pyridin-6-yl]-~{N}-methylcarbamate]",85.6
11,"CCOC(=O)N(C)c1ccc2cc(-c3nc4cc(C(=O)N5[C@H]6CC[C@@H]5[C@H](N)C6)cc(OC)n4c3C)n(CC3CC3)c2n1 [Example 466, ethyl~{N}-[2-[7-[(1~{R},2~{R},4~{S})-2-amino-7-azabicyclo[2.2.1]heptane-7-carbonyl]-5-methoxy-3-methylimidazo [1,2-a]pyridin-2-yl]-1-(cyclopropylmethyl)pyrrolo [2,3-b]pyridin-6-yl]-~{N}-methylcarbamate]",143
